From patent publication US20220339179A1, “TREATMENT OF HR DEFICIENT CANCER” (THE FRANCIS CRICK INSTITUTE LIMITED, priority 2019, published 2022)

Columns and labels:
recombinant human DNPH1 = biological target: T1, recombinant human DNPH1 (Homo sapiens, UniProt O43598); assay: DNPH1 in vitro activity assay (RP-HPLC); format: biochemical; settings: for DNPH1 activity towards nucleoside monophosphate substrates: DNPH1 4 μM, substrate 1 mM, 45 min, RP-HPLC
T1 construct: His6 (N); made in house; host or cells: E. coli BL21 (pET28a)
T1 sequence (O43598 1-174): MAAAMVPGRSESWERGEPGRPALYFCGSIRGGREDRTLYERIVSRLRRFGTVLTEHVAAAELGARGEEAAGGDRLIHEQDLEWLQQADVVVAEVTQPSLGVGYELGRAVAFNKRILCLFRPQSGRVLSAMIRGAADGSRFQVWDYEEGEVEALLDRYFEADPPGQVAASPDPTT
Experimental: HIS6DNPH1 and HIS6DNPH1E105Q, cloned in pET28a were transformed into BL21 cells. Transformed cells were inoculated into 2 L of TB media supplemented with 50 μg/ml kanamycin and incubated 37° C. until an OD600=1.0. IPTG (0.5 mM) was added and incubation continued for 4 hours. Cells were harvested by centrifugation and resuspended in lysis buffer (50 mM HEPES pH 7.5, 300 mM NaCl, 5% glycerol, 0.5 mM TCEP) supplemented with protease inhibitors (Complete EDTA-free tablets, Roche). Cells were lysed by passage through an Emulsiflex C5 (Avestin) at […], and the chromatin sheared by sonication at 50% maximum amplitude for 2×30 sec. Soluble proteins were isolated by ultracentrifugation (Beckman Type JLA25.50 rotor) at 60,000×g for 60 min (4° C.). Soluble extract was supplemented with 30 mM imidazole and incubated with 2 ml Ni-NTA beads (GE Healthcare) for 1 hour (4° C.). The beads were washed (50 mM HEPES pH 7.5, 300 mM NaCl, 30 mM imidazole, 5% glycerol, 0.5 mM TCEP) and protein eluted (50 mM HEPES pH7.5, 300 mM NaCl, 200 mM imidazole, 5% glycerol, 0.5 mM TCEP). The eluates were pooled, diluted dropwise to 100 mM NaCl (50 mM HEPES pH 7.5, 5% glycerol, 0.5 mM DTT) and DNPH1 further purified using a 5 ml HiTRAP QHP column (GE Healthcare), followed by a Superdex 200 Increase 10/300 column (GE Healthcare). Peak fractions were separated by SDS-PAGE and visualized with Instant Blue (Gentaur). Peak fractions were frozen in aliquots and stored at −80° C.
DNPH1 (4 μM) was incubated with nucleoside monophosphates (1 mM) in 20 mM sodium phosphate, pH 7.0, 150 mM NaCl, 2 mM MgCl2. After 45 min at room temperature the reaction was quenched by addition of 0.7% perchloric acid followed by immediate neutralization with addition of sodium acetate to 200 mM. Samples were diluted 1:10 into RP-Buffer (100 mM K2HPO4/KH2PO4, pH 6.5, 10 mM tetrabutylammonium bromide, 7% acetonitrile) and the nucleotides and reaction products separated from precipitated protein by filtration through a 0.22 μm centrifugal filter (Durapore-PVDF, Millipore). Samples of each reaction (5 nmol) were applied to a Zorbax SB-C18 column (4.6×250 mm, 3.5 μm, 80A pore size, Agilent Technologies), maintained at 30° C. and mounted on a Jasco HPLC system controlled by Chromnav software (v1.19, Jasco). Nucleoside monophosphates and reaction products were separated under isocratic flow by application of RP-Buffer at 1 mL/min. Absorbance data from the column eluent was continuously monitored between 200-400 nm (2 nm interval) using an MD-2010 photodiode array detector (JASCO). […] Peak integration of the absorbance data recorded at 260 nm was used to quantify the amount of substrate and product. […] The rate was determined by linear regression of a plot of product against reaction time.

[1] = test system: eHAP MUS81−/−DNPH1−/− cells; assay: Cell viability assay (CellTiter-Glo), eHAP MUS81−/−DNPH1−/− cells; format: cell-based, human; settings: for sensitisation to PARP inhibitor by loss of DNPH1: vs MUS81 k/o cells, continuous treatment 6 days; for sensitivity of MUS81/DNPH1 k/o cells to nucleoside treatment (cell viability): nucleoside 200 nM, vs MUS81 k/o
Experimental: (§1) For analysis of cell viability following exposure to olaparib (Selleckchem), deoxyribonucleosides and DNPH1i (N6-benzyladenosine, Carbosynth), cells were seeded in 96-well plates at a density of 100-500 cells per well. Twenty-four hours post-seeding, drug treatments were initiated, and cells were continuously exposed until termination of the experiment. Cell viability was measured using CellTiter-Glo (Promega). The surviving fractions were measured, and drug sensitivity curves were plotted using GraphPad Prism. The following nucleosides were purchased from commercial sources: dU (2′-deoxyuridine), hdU (5-hydroxy-2′-deoxyuridine), hmdU (5-hydroxymethyl-2′-deoxyuridine), mdC (5-methyl-2′-deoxycytidine), hmdC (5-hydroxymethyl-2′-deoxycytidine), cadC (5-carboxy-2-deoxycytidine), fodC (5-formyl-2-deoxycytidine), dl (2′-deoxyinosine), dX (2′-deoxyxanthosine), 8odG (8-oxo-2′-deoxyguanosine), hmU (5 hydroxymethyluridine), hmC (5-hydroxymethyl-cytidine). fodU (5-formyl-2′-deoxyuridine) was synthesized as previously described (Guo et al Org. Biomol. Chem. 11, 1610-1613 (2013).

eHAP MUS81−/− cells = assay: Cell viability assay (CellTiter-Glo), eHAP MUS81−/− cells; format: cell-based, human; settings: for effect on viability, agent alone: single agent
Experimental: as §1

[2] = test system: SUM149 BRCA1mut (parental) cells; assay: Cell viability assay, SUM149 BRCA1mut (parental) cells; format: cell-based, human; settings: olaparib 250 nM or hmdU 2 μM, 8 days
Experimental: as §1

DLD1 BRCA2−/− cells = assay: Cell viability assay, DLD1 BRCA2−/− cells; format: cell-based; settings: olaparib 10 nM or hmdU 2 μM, 10 days
Experimental: as §1

[3] = test system: eHAP WT and MUS81−/− isogenic cells; assay: LD80 dose used in genome-wide CRISPR-Cas9 screen; format: cell-based, human; settings: 10 days
Experimental: eHAP WT and MUS81−/− isogenic cells were transduced with a genome-wide lentiviral lentiCRISPRv2 sgRNA library (Doench et al 2016, PMID: 26780180) using multiplicity of infection (MOI) of ˜0.5 with a complexity of 400 cells/sgRNA. Transduced cells were selected with puromycin (0.4 mg/ml), expanded for 7 days, and sub-cultured in the presence or absence of an LD80 dose of olaparib (200 nM) or hmdC (1000 nM) for 10 days. Surviving cells were collected and genomic DNA was extracted using DNeasy Blood & Tissue Kit (Qiagen) supplemented with RNAse (Qiagen) according to the manufacturer's instructions. The CRISPR screens were carried out in biological triplicates. Libraries for Illumina sequencing were generated by two-step PCR amplification. In the first PCR, the sgRNA library was amplified and adaptors were added using nesting primers and the second PCR added barcodes, stagger regions, flow cell attachment and Illumina sequencing primers.
MUS81 k/o cells were transduced with the lentiviral-based Brunello genome-wide gRNA library (J. G. Doench et al Nat. Biotechnol. 34, 184-191 (2016)), followed by treatment with olaparib for 10 days. […] Bioinformatic analysis of the gRNA reads using the MAGeCK algorithm identified several novel, as well as previously reported, factors determining PARPi efficacy (FIG. 1).

DCTD k/o cell lines = assay: Cell viability, DCTD k/o cell lines; format: cell-based
Experimental: as §1

SMILES: O=c1ccn([C@@H]2O[C@H](COP(=O)(O)O)[C@@H](O)[C@H]2O)c(=O)[nH]1 [UMP]
- DNPH1 activity towards nucleoside monophosphate substrates (recombinant human DNPH1): Little or no activity

SMILES: Cn1ncnc1[C@H]1c2n[nH]c(=O)c3cc(F)cc(c23)N[C@@H]1c1ccc(F)cc1 [talazoparib, (8S,9R)-5-Fluoro-8-(4-fluorophenyl)-9-(1-methyl-1H-1,2,4-triazol-5-yl)-2,7,8,9-tetrahydro-3H-pyrido[4,3,2-de]phthalazin-3-one]
- sensitisation to PARP inhibitor by loss of DNPH1 [1]: sensitised
- effect on viability, agent alone (eHAP MUS81−/− cells): limited effect on viability

SMILES: O=c1[nH]c(=O)n([C@H]2C[C@H](O)C(COP(=O)(O)O)O2)cc1CO (some centres unmarked) [hmdUMP]
- DNPH1 activity towards nucleoside monophosphate substrates (recombinant human DNPH1): efficiently hydrolyzed
- reaction rate of hmdUMP hydrolysis by DNPH1 (recombinant human DNPH1; DNPH1 (2 μM), samples quenched at intervals up to 20 minutes, linear regression): 14.6 ± 0.4 µM/min

SMILES: O=c1ccn([C@H]2C[C@H](O)[C@@H](COP(=O)(O)O)O2)c(=O)[nH]1 [dUMP]
- DNPH1 activity towards nucleoside monophosphate substrates (recombinant human DNPH1): Little or no activity

SMILES: OC[C@H]1O[C@@H](n2cnc3c(NCc4ccccc4)ncnc32)[C@H](O)[C@@H]1O [DNPH1i, N6-benzyladenosine]
- effect of DNPH1i on viability (specificity control) ([1]; with hmdU, 6 days, DNPH1 k/o cells): only a marginal effect
- effect on viability, agent alone (eHAP MUS81−/− cells): no effect on viability
- effect of DNPH1i on viability (specificity control) (eHAP MUS81−/− cells; with hmdU, 6 days, cells with DNPH1 (text: wild-type)): dose-dependent decrease in viability

SMILES: O=Cc1cn([C@H]2C[C@H](O)[C@@H](CO)O2)c(=O)[nH]c1=O [fodU, 5-formyl-2′-deoxyuridine]
- sensitivity of MUS81/DNPH1 k/o cells to nucleoside treatment (cell viability) ([1]; 6 days): to a lesser extent

SMILES: O=C(c1cc(Cc2n[nH]c(=O)c3ccccc23)ccc1F)N1CCN(C(=O)C2CC2)CC1 [olaparib, 1-(Cyclopropylcarbonyl)-4-[5-[(3,4-dihydro-4-oxo-1-phthalazinyl)methyl]-2-fluorobenzoyl]piperazine]
- effect on viability, agent alone [2]: limited effect on viability
- sensitisation to PARP inhibitor by loss of DNPH1 [1]: sensitized
- effect on viability, agent alone (DLD1 BRCA2−/− cells): limited effect on viability
- effect on viability, agent alone (eHAP MUS81−/− cells): limited effect on viability
- LD80 dose [3]: 200 nM

SMILES: C[C@]1(c2nc3c(C(N)=O)cccc3[nH]2)CCCN1 [veliparib, 2-[(2R)-2-Methyl-2-pyrrolidinyl]-1H-benzimidazole-4-carboxamide]
- sensitisation to PARP inhibitor by loss of DNPH1 [1]: sensitised
- effect on viability, agent alone (eHAP MUS81−/− cells): limited effect on viability

SMILES: Nc1nc(=O)n([C@H]2C[C@H](O)[C@@H](CO)O2)cc1CO [hmdC, 5-hydroxymethyl-2′-deoxycytidine]
- sensitivity of MUS81/DNPH1 k/o cells to nucleoside treatment (cell viability) ([1]; 6 days): to a lesser extent
- resistance of DCTD k/o cells to nucleoside treatment (DCTD k/o cell lines): completely resistant
- LD80 dose [3]: 1000 nM
